Source: PMC6399351, “Cationic Intrinsically Disordered Antimicrobial Peptides (CIDAMPs) Represent a New Paradigm of Innate Defense with a Potential for Novel Anti-Infectives” (Scientific Reports, 2019)
Values after ≈ are worked out from the molar mass of the structure shown. Like-named read-outs stand apart in the source and are kept apart here. Peptide text beside a SMILES is read from it. * marks the point of attachment. Palmitoyl = CCCCCCCCCCCCCCCC(=O)*

Columns and labels:
[1] = test system: Pseudomonas aeruginosa ATCC 27853; test: CO-ADD MIC, broth microdilution (CLSI); type: cell-based; conditions: Mueller–Hinton broth, 5 × 10^5 CFU/mL, 18 h 37 °C, by CO-ADD
Excerpt: (§1) They were defined as the lowest peptide
(§2) Further details of the screening

[2] = test system: Acinetobacter baumannii ATCC 19606; test: CO-ADD MIC, broth microdilution (CLSI); type: cell-based; conditions: Mueller–Hinton broth, 5 × 10^5 CFU/mL, 18 h 37 °C, by CO-ADD
Excerpt: as §1, §2

S. aureus ATCC 6538 = conditions: CFU assay, 10 mM NaP
[3] = test system: Burkholderia cepacia ATCC 25416; conditions: CFU assay, 10 mM NaP
[4] = test system: Streptococcus pyogenes ATCC 12344; test: CFU assay of antimicrobial activity; type: cell-based; conditions: 10 mM NaP
Experimental: (§3) All purified peptides and recombinant proteins were applied using a colony forming unit (CFU) assay in different media. Bacteria were grown to early log-phase in BHI, washed either with 10 mM Na-P, pH 7.4/1% TSB or pH 5.5/1% TSB, or pH 5.5 without TSB or BHI, and adjusted to a concentration of 10^4–10^5 colony forming units (CFU)/ml. For cell number control, 100 µl aliquots were diluted 1:10, 1:100 and 1:1000 and plated in duplicates on BHI agar plates. To 100 µl aliquots of the bacteria, suspended in the respective medium (10 mM Na-P buffer pH 7,0–7,4/ 1% (w/v) TSB; […]; 10 mM Na-P buffer pH 7,0–7,4/ 1% (w/v) TSB pH 7,0–7,4/ 0,25% (w/v) glucose; 10 mM Na-P buffer pH 5,5/ 0,25% (w/v) glucose, respectively), 10 µl of a solution of the peptide or protein (two-fold dilutions, from 300 µg/ml or 150 µg/ml down to 19 ng/ml), dissolved in 0.01% (v/v) acetic acid, were added.
(§4) Then bacteria were incubated for 2 h at ambient temperature, if not otherwise stated. 10 µl of 0.01% (v/v) acetic acid, added to 100 µl aliquots of the bacteria in the respective medium, served as negative control. From each test, 1:10 and 1:100 dilutions were generated and plated as duplicates of 100 µl aliquots on BHI agar plates. After 16 h incubation at 37 °C, CFU were counted using a colony counter (Bio Kobe, Japan) and expressed as mean of the duplicate estimation to achieve a complete dose-response curve. All experiments were performed at serial dilutions in a concentration range of 100 µg/mL −25 ng/mL for recombinant HRNR fragments and 300 or 150 µg/mL–19 ng/mL for synthetic peptides.

[5] = test system: Streptococcus pneumoniae ATCC 33400; test: CFU assay of antimicrobial activity; type: cell-based; conditions: 10 mM NaP
Experimental: as §3, §4

[6] = test system: Klebsiella pneumonia ATCC 700603; conditions: MDR strain; CLSI, Mueller–Hinton broth, 5 × 10^5 CFU/mL, 18 h 37 °C, by CO-ADD
[7] = test system: Staphylococcus aureus ATCC 43300; conditions: MRSA; CLSI, Mueller–Hinton broth, 5 × 10^5 CFU/mL, 18 h 37 °C, by CO-ADD
[8] = test system: Cryptococcus neoformans ATCC 208821; test: CO-ADD MIC, antifungal assay (CLSI); type: cell-based; conditions: Yeast Nitrogen Base broth, 24 h 35 °C, by CO-ADD
Experimental: (§5) Fungi strains were cultured for 3 days on Yeast Extract-Peptone Dextrose (YPD) agar at 30 °C. A yeast suspension of 1 × 10^6 to 5 × 10^6 cells/mL (as determined by OD530) was prepared from five colonies. These stock suspensions were diluted with Yeast Nitrogen Base (YNB) broth to a final concentration of 2.5 × 10^3 CFU/mL. […] Plates were covered and incubated at 35 °C for 24 h without shaking.

[9] = test system: Candida albicans ATCC 90028; test: CO-ADD MIC, antifungal assay (CLSI); type: cell-based; conditions: Yeast Nitrogen Base broth, 24 h 35 °C, by CO-ADD
Experimental: as §5

[10] = test system: Clostridium perfringens ATCC 13124; conditions: CFU assay, 10 mM NaP
[11] = test system: Prevotella oralis ATCC 33321; test: CFU assay of antimicrobial activity; type: cell-based; conditions: 10 mM NaP
Experimental: All purified peptides and recombinant proteins were applied using a colony forming unit (CFU) assay in different media. Bacteria were grown to early log-phase in BHI, washed either with 10 mM Na-P, pH 7.4/1% TSB or pH 5.5/1% TSB, or pH 5.5 without TSB or BHI, and adjusted to a concentration of 10^4–10^5 colony forming units (CFU)/ml. For cell number control, 100 µl aliquots were diluted 1:10, 1:100 and 1:1000 and plated in duplicates on BHI agar plates. To 100 µl aliquots of the bacteria, suspended in the respective medium (10 mM Na-P buffer pH 7,0–7,4/ 1% (w/v) TSB; 10 mM Na-P buffer pH 5,5/ 1% (w/v) TSB; 10 mM Na-P buffer pH 7,0–7,4/ 1% (w/v) TSB pH 7,0–7,4/ 0,25% (w/v) glucose; […], respectively), 10 µl of a solution of the peptide or protein (two-fold dilutions, from 300 µg/ml or 150 µg/ml down to 19 ng/ml), dissolved in 0.01% (v/v) acetic acid, were added.
as §4

E. coli ATCC 25922 = test: CO-ADD MIC, broth microdilution (CLSI); type: cell-based, Escherichia coli; conditions: Mueller–Hinton broth, 5 × 10^5 CFU/mL, 18 h 37 °C, by CO-ADD
Excerpt: as §1, §2

P. aeruginosa ATCC 10145 = conditions: CFU assay, 10 mM NaP
[12] = test system: Propionibacterium acnes ATCC 6919; test: CFU assay of antimicrobial activity; type: cell-based; conditions: 10 mM NaP
Experimental: (§6) All purified peptides and recombinant proteins were applied using a colony forming unit (CFU) assay in different media. Bacteria were grown to early log-phase in BHI, washed either with 10 mM Na-P, pH 7.4/1% TSB or pH 5.5/1% TSB, or pH 5.5 without TSB or BHI, and adjusted to a concentration of 10^4–10^5 colony forming units (CFU)/ml. For cell number control, 100 µl aliquots were diluted 1:10, 1:100 and 1:1000 and plated in duplicates on BHI agar plates. To 100 µl aliquots of the bacteria, suspended in the respective medium (10 mM Na-P buffer pH 7,0–7,4/ 1% (w/v) TSB; 10 mM Na-P buffer pH 5,5/ 1% (w/v) TSB; 10 mM Na-P buffer pH 7,0–7,4/ 1% (w/v) TSB pH 7,0–7,4/ 0,25% (w/v) glucose; 10 mM Na-P buffer pH 5,5/ 0,25% (w/v) glucose, respectively), 10 µl of a solution of the peptide or protein (two-fold dilutions, from 300 µg/ml or 150 µg/ml down to 19 ng/ml), dissolved in 0.01% (v/v) acetic acid, were added.
as §4

[13] = test system: Klebsiella pneumoniae ATCC 13883; conditions: CFU assay, 10 mM NaP
[14] = test system: Staphylococcus epidermidis ATCC 14990; test: CFU assay of antimicrobial activity; type: cell-based; conditions: 10 mM NaP
Experimental: as §6, §4

E. coli ATCC 11775 = test: CFU assay of antimicrobial activity; type: cell-based, Escherichia coli; conditions: 10 mM NaP
Experimental: as §6, §4

[15] = test system: Salmonella typhimurium ATCC 13311; test: CFU assay of antimicrobial activity; type: cell-based; conditions: 10 mM NaP
Experimental: as §6, §4

SMILES	Minimal inhibitory concentration (MIC) [1]	Minimal inhibitory concentration (MIC) [2]	LD90 (S. aureus ATCC 6538; pH 5.5, 0.25% glucose)	LD90 (S. aureus ATCC 6538; pH 7.3, 1% TSB)	LD90 ([3]; pH 7.3, 0.25% glucose)	LD90 ([4]; pH 7.3, 0.25% glucose)	LD90 ([5]; pH 7.3, 0.25% glucose)	Minimal inhibitory concentration (MIC) [6]	Minimal inhibitory concentration (MIC) [7]	Minimal inhibitory concentration (MIC) [8]	Minimal inhibitory concentration (MIC) [9]	LD90 ([10]; pH 7.3, 0.25% glucose)	LD90 ([11]; pH 7.3, 1% TSB)	Minimal inhibitory concentration (MIC) (E. coli ATCC 25922)	LD90 ([12]; pH 7.3, 1% TSB)	LD90 ([13]; pH 5.5, 0.25% glucose)	also measured
CCCCCCCCCCCCCCCC(=O)NCC(=O)N[C@@H](CCCNC(=N)N)C(=O)N[C@@H](CCCNC(=N)N)C(=O)NCC(=O)N[C@@H](CO)C(=O)NCC(=O)N[C@@H](CC(C)C)C(=O)NCC(=O)N[C@@H](CCCNC(=N)N)C(=O)N[C@@H](CO)C(=O)N[C@@H](CO)C(=O)N[C@@H](CO)C(=O)N[C@@H](CCCNC(=N)N)C(=O)NCC(=O)N[C@@H](CCC(N)=O)C(=O)N[C@@H](CCCNC(=N)N)C(=O)NCC(=O)N[C@@H](CO)C(=O)NCC(=O)N[C@@H](CO)C(=O)NCC(=O)N[C@@H](CCCNC(=N)N)C(=O)O [Pal-HR 1-18-HR] (Palmitoyl-GRRGSGLGRSSSRGQRGSGSGR-OH)	16 µg/mL (≈ 6.63 µM)	1 µg/mL (≈ 0.414 µM)	0.3 µg/mL	1.18 µg/mL	75 µg/mL	0.15 µg/mL	9.38 µg/mL	>32 µg/mL	8 µg/mL (≈ 3.31 µM)	1 µg/mL (≈ 0.414 µM)	>32 µg/mL	4.7 µg/mL	37.5 µg/mL	4 µg/mL (≈ 1.66 µM)	1.18 µg/mL		LD90 ([3]; pH 7.3, 1% TSB): 75 µg/mL; LD90 (P. aeruginosa ATCC 10145; pH 7.3, 1% TSB): 1.18 µg/mL
CCCCCCCCCCCCCCCC(=O)NCC(=O)N[C@@H](CCCNC(=N)N)C(=O)N[C@@H](Cc1c[nH]cn1)C(=O)NCC(=O)N[C@@H](CO)C(=O)NCC(=O)N[C@@H](CC(C)C)C(=O)NCC(=O)N[C@@H](Cc1c[nH]cn1)C(=O)N[C@@H](CO)C(=O)N[C@@H](CO)C(=O)N[C@@H](CO)C(=O)N[C@@H](Cc1c[nH]cn1)C(=O)NCC(=O)N[C@@H](CCC(N)=O)C(=O)N[C@@H](Cc1c[nH]cn1)C(=O)NCC(=O)N[C@@H](CO)C(=O)NCC(=O)N[C@@H](CO)C(=O)NCC(=O)N[C@@H](CCCNC(=N)N)C(=O)O [Pal-HR 1-18] (Palmitoyl-GRHGSGLGHSSSHGQHGSGSGR-OH)	>32 µg/mL	32 µg/mL (≈ 13.7 µM)	1.18 µg/mL	> 300 µg/mL	75 µg/mL	0.15 µg/mL	2.35 µg/mL	>32 µg/mL	>32 µg/mL	>32 µg/mL	>32 µg/mL	4.7 µg/mL	18.75 µg/mL	>32 µg/mL	1.18 µg/mL	0.3 µg/mL	LD90 ([4]; pH 7.3, 1% TSB): 9.38 µg/mL; LD90 ([5]; pH 7.3, 1% TSB): 9.38 µg/mL; LD90 ([10]; pH 5.5, 0.25% glucose): 37.5 µg/mL; LD90 ([10]; pH 7.3, 1% TSB): 18.75 µg/mL; LD90 ([11]; pH 6.5, 0.25% glucose): 37.5 µg/mL; LD90 ([12]; pH 5.5, 0.25% glucose): 0.3 µg/mL; LD90 ([12]; pH 7.3, 0.25% glucose): 0.59 µg/mL; LD90 ([14]; pH 7.3, 1% TSB): > 300 µg/mL
CCCCCCCCCCCCCCCC(=O)N[C@@H](CO)C(=O)N[C@@H](Cc1c[nH]cn1)C(=O)N[C@@H](Cc1c[nH]cn1)C(=O)N[C@@H](CCCNC(=N)N)C(=O)N[C@@H](CS)C(=O)N[C@@H](CS)C(=O)N[C@@H](CCCNC(=N)N)C(=O)N[C@@H](CO)C(=O)N[C@@H](Cc1c[nH]cn1)C(=O)N[C@@H](CCCNC(=N)N)C(=O)N[C@@H](CS)C(=O)N[C@@H](CCCNC(=N)N)C(=O)N[C@@H](CCCNC(=N)N)C(=O)O [Pal-LCE-3B56–68] (Palmitoyl-SHHRCCRSHRCRR-OH)	>32 µg/mL	>32 µg/mL	<0.019 µg/mL		4.7 µg/mL	0.15 µg/mL	0.59 µg/mL	>32 µg/mL	16 µg/mL (≈ 8.28 µM)	0.25 µg/mL (≈ 0.129 µM)	1 µg/mL (≈ 0.517 µM)			>32 µg/mL		0.15 µg/mL	LD90 ([3]; pH 5.5, 0.25% glucose): >300 µg/mL; LD90 ([4]; pH 6.0, 0.25% glucose): 0.15 µg/mL; LD90 (E. coli ATCC 11775; pH 5.5, 0.25% glucose): 0.3 µg/mL; LD90 (E. coli ATCC 11775; pH 7.3, 0.25% glucose): 0.59 µg/mL; LD90 ([13]; pH 7.3, 0.25% glucose): 2.35 µg/mL; LD90 (P. aeruginosa ATCC 10145; pH 5.5, 0.25% glucose): 0.075 µg/mL; LD90 ([14]; pH 5.5, 0.25% glucose): 0.3 µg/mL; LD90 ([15]; pH 5.5, 0.25% glucose): 0.038 µg/mL; LD90 ([15]; pH 7.3, 0.25% glucose): 1.18 µg/mL
